Results on four compounds are retold here after patent US7915262B2, “Combination preparations comprising SLV308 and a dopamine agonist” (Solvay Pharmaceuticals B.V., priority 2006, dated 2011).

Data set [1] relates to MPTP-lesioned common marmosets. Put plainly: motor disability rating in MPTP-treated common marmosets. It counts as in vivo, Callithrix jacchus. How it is done:
(§1) All experimental work was carried out in accordance with the Animals (Scientific Procedures Act) 1986, project license nr PPL 70/4986. Administration of MPTP: […] Research Biochemical International, UK) was dissolved in 0.9% sterile saline solution and administered by subcutaneous (sc) injection (Pearce, et al., De Novo Administration of Ropinirole and Bromocriptine Induces Less Dyskinesia than L-DOPA in the MPTP-treated Common Marmoset, Mov Dis, Mar, 13(2), 234-41, (1998)). To induce the full lesion, MPTP (2.0 mg/kg, sc) was administered once daily for 5 consecutive days. During MPTP-treatment and for the following six to eight weeks, animals were hand fed on a marmoset jelly diet until they had recovered sufficiently to feed themselves and their body weights had stabilised. All animals were determined responsive to L-DOPA administration prior to use. Testing commenced only when animals had recovered from the acute effects of MPTP treatment. In this study this was 70 days after commencement for MPTP treatment. Drugs: […] Doses are expressed as mg/kg free base. L-DOPA methyl ester (Sigma, UK) was dissolved in 10% sucrose in given in a volume of 2 ml/kg and administered by oral gavage. Carbidopa (Merck Sharp and Dohme, UK) was suspended in 10% sucrose in given in a volume of 2 ml/kg and administered directly into the mouth of the animal. Domperidone (Sigma, UK) was suspended in 10% sucrose in given in a volume of 2 ml/kg and administered directly into the mouth of the animal. […] Doses of L-DOPA were chosen to reflect a moderate and high dose of L-DOPA (7.5 and 12.5 mg/kg, po respectively). Procedure: […] A modified latin square design was employed with one week wash-out periods between treatments. Animals were assessed for locomotor activity and disability as described below. Rating of disability: The animals were monitored through a one-way mirror by experienced observers, blinded to treatment, and rated for the degree of motor dysfunction. […] Analysis and Statistics: […]

The test system of data set [2] is MPTP-lesioned common marmosets. The experiment in a line: locomotor activity in MPTP-lesioned common marmosets. Conditions: for hyperactivity (3 times normal activity in naive marmosets): alone or combined. It counts as in vivo, Callithrix jacchus. How it is done: as §1, with “Assessment” for “Rating”, “locomotor activity: […] Each cage was equipped with 8 horizontally orientated infrared photocell emitters and their corresponding detectors arranged so as” for “disability: The animals were monitored through a one-way mirror by experienced observers, blinded”, “permit maximum assessment” for “treatment, and rated for the degree”, “movement.” for “motor dysfunction.”

For data set [3] the following is noted: prodrug; WO 2007/023141; cited from earlier work.
The target in data set [4] is T1, cloned human 5-HT1A receptors (Homo sapiens, UniProt P08908).
T1 construct: expressed in transfected cells
T1 sequence (P08908 1-422): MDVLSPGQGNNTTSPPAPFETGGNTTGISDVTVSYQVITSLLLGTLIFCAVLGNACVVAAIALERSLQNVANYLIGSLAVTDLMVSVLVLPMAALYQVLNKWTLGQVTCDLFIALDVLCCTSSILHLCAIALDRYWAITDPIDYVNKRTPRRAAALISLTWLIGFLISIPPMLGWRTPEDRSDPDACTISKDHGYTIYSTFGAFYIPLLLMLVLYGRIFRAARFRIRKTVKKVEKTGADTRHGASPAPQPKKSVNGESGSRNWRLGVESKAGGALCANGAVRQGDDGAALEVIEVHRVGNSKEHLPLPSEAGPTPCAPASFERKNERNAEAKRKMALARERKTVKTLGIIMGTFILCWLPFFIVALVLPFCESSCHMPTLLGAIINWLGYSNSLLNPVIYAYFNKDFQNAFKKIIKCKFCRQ
Conditions: forskolin induced cAMP accumulation; cited from earlier work.

Data set [5] has as its target T2, human recombinant dopamine D3 receptors (Homo sapiens, UniProt P35462).
T2 construct: expressed in transfected cells
Conditions: cited from earlier work.

Data set [6] concerns MPTP-lesioned common marmosets. Conditions: po; previous study; cited from earlier work.
The target in data set [7] is T3, cloned human dopamine D2,L receptors (Homo sapiens, UniProt P14416).
T3 construct: expressed in transfected cells
T3 sequence (P14416 whole entry): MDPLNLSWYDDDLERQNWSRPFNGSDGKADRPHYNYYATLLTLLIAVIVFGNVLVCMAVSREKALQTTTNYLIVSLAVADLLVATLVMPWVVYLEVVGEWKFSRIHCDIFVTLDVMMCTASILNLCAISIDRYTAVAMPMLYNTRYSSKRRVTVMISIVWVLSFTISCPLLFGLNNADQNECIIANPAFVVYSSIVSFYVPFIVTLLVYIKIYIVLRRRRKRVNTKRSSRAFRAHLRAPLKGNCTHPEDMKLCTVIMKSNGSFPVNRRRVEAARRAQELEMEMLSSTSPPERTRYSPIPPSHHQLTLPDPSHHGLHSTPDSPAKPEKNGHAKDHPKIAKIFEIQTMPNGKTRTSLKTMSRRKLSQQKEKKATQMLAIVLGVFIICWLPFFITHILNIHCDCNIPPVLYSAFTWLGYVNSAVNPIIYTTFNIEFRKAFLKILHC
Conditions: cited from earlier work.

Data set [8] has as its target T4, dopamine D2 receptor (Rattus norvegicus, UniProt P61169).
T4 construct: from rat striatal slices; from tissue; host or cells: rat striatal slices
Conditions: against inhibitory effect of quinpirole on K+-stimulated [3H]dopamine release, rat striatal slices; cited from earlier work.

Data set [9] has as its system dopamine D2/3 receptor. Conditions: rat striatal slices; cited from earlier work.
[10] abbreviates: L-DOPA 7.5 and 12.5 mg/kg po, SLV308 0.26 mg/kg po.
The mark [11] stands for this setting: SLV308 0.26 mg/kg po, L-DOPA 7.5 and 12.5 mg/kg po.

SMILES strings stand for the structures. Counter-ions that a name gives are not always drawn.

T2 sequence (P35462 whole entry): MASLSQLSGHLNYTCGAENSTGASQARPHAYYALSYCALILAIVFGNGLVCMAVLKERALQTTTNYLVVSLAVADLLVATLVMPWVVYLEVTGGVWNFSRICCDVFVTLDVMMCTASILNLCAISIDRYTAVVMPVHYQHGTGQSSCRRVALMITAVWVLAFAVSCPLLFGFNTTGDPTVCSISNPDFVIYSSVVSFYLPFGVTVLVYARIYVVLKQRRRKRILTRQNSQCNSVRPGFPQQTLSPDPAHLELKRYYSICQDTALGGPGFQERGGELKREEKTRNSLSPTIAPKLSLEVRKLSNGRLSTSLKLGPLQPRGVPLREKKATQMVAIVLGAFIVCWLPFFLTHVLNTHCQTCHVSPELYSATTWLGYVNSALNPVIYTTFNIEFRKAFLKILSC
T4 sequence (P61169 whole entry): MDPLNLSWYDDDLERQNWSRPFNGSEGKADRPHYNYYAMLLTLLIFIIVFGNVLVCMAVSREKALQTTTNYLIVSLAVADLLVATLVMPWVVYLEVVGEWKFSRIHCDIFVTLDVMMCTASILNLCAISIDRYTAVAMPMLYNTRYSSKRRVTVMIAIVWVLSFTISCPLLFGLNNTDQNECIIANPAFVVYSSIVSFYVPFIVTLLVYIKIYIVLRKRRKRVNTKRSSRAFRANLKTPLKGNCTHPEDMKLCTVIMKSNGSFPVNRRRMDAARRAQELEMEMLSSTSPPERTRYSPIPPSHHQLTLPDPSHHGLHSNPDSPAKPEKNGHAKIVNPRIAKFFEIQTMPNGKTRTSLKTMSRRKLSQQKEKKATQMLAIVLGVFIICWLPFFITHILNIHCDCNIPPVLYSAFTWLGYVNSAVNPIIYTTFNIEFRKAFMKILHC

As for `N[C@@H](Cc1ccc(O)c(O)c1)C(=O)O` [L-DOPA, 3,4-dihydroxyphenylalanine], the “duration of reversal of disability” value in [1] (L-DOPA 7.5 mg/kg po) was determined as 150 min. For the same compound, in data set [1] (L-DOPA 12.5 mg/kg po), the “duration of reversal of disability” value is 180 min. Besides, in data set [1] (L-DOPA 7.5 and 12.5 mg/kg po), the “time of peak reversal of disability after administration” value came to 90 min. In addition, in data set [1] (setting [10]), the “MPTP-induced akinesia and disability” value is listed as “reverse”; the “onset of reversal of disability” value is “immediate reversal of disability”. For the same compound, in data set [1] (L-DOPA 7.5 and 12.5 mg/kg po, maximum score 18), the “disability score at peak reversal” value was found to be 2.5. Besides, in [2] (L-DOPA 7.5 and 12.5 mg/kg po), the “duration of locomotor activity” value was 150 to 240 min, the “onset of locomotor activity increase” value is recorded as “immediate increase in locomotor activity” and the “time of peak locomotor activity after administration” value was 60 to 90 min. For the same compound, the “hyperactivity (3 times normal activity in naive marmosets)” value in [2] (setting [11]) is given as “produced periods of hyperactivity”.
In the case of `C[N+]1([O-])CCN(c2cccc3[nH]c(=O)oc23)CC1` [N-oxide of SLV308], the “conversion to SLV308 in vivo” value in [3] is “rapidly converted to SLV308”.
Regarding `CN1CCN(c2cccc3[nH]c(=O)oc23)CC1` [SLV308, 7-[4-methyl-1-piperazinyl]-2(3H)-benzoxazolone mono hydrochloride], in data set [1] (setting [10]), the “MPTP-induced akinesia and disability” value is recorded as “reverse”; the “onset of reversal of disability” value is “reduced disability scores immediately after administration”. In data set [1] (SLV308 0.26 mg/kg po alone), the “median duration of activity (reversal of disability)” value is reported as 390 min. For the same compound, the “total disability scores over the 7 hours after administration” value in data set [1] (SLV308 0.26 mg/kg po alone or in combination with L-DOPA 7.5 or 12.5 mg/kg, versus vehicle p<0.001) is recorded as “reduced”. The “disability score at maximum improvement” value in data set [1] (SLV308 0.26 mg/kg po, maximum score 18) worked out at 3. Besides, in [4], the pEC50 is given as 6.3 and the “type of agonism at 5-HT1A” value is listed as “full 5-HT1A receptor agonist”. Also, in [5] (antagonism of dopamine induction of [35S]GTPγS binding), the pA2 is given as 9.0. In addition, the pEC50 in data set [5] (induction of [35S]GTPγS binding) is recorded as 9.2. Besides, the “induction of [35S]GTPγS binding” value in [5] (partial agonist) is reported as 67 % that of dopamine. Further, in [2] (SLV308 0.26 mg/kg po), the “time of peak locomotor activity after treatment” value was 180 min and the “time to increase of locomotor activity after administration” value is ≤ 30 min. Further, in data set [2] (setting [11]), the “hyperactivity (3 times normal activity in naive marmosets)” value was “hyperactivity was not observed”. The “duration of locomotor activity” value in data set [2] (SLV308 0.26 mg/kg po, whole observation period) is ≥ 420 min. In addition, in [6], the “dose of optimal effect on locomotor activity and disability scores” value is on record as 0.26 mg/kg. For the same compound, in data set [7] (D2,L receptor antagonism), the pA2 was 8.4. Also, the “efficacy on forskolin stimulated cAMP accumulation” value in data set [7] (partial agonist) is reported as 50%. In addition, the pA2 in data set [8] is given as 8.5. The “effect on forskolin stimulated accumulation of cAMP” value in data set [9] is “concentration-dependently attenuated”.
On to `CCN(CC)C(=O)N[C@H]1C[C@@H]2c3cccc4[nH]cc(c34)C[C@H]2N(C)C1` [terguride, reference compound], for which the pA2 in [8] is reported as 10.3.
